In ChEMBL document CHEMBL5537154, “Smart glypican-3-targeting peptide-chlorin e6 conjugates for targeted photodynamic therapy of hepatocellular carcinoma” (Eur J Med Chem, 2024):
Each block holds one compound with its values, some of them ahead of it. The source made the active and inactive calls. The rule behind the calls is not given here. Peptide text beside a SMILES is read from it.

Tests used:
[1] = Antiproliferative activity against human HUVEC cells under dark condition by CCK8 assay; type: toxicity, cell-based
[2] = system: Huh-7; experiment: Antiproliferative activity against human Huh-7 cells under dark condition by CCK8 assay; type: functional, cell-based
[3] = system: MCF7; experiment: Antiproliferative activity against human MCF7 cells under dark condition by CCK8 assay; type: functional, cell-based
[4] = system: MCF7; experiment: Antiproliferative activity against human MCF7 cells under 10 J/cm2 light irradiation at 660 nm by CCK8 assay; type: functional, cell-based; conditions: MCF7, light or radiation study
[5] = Partition coefficient, logP of compound; type: physicochemical; conditions: octanol/water
[6] = system: HepG2; experiment: Antiproliferative activity against human HepG2 cells under dark condition by CCK8 assay; type: functional, cell-based
[7] = Photostability of compound under 250 mW/cm2 light irradiation at 660 nm incubated for 10 mins by UV spectrophotometry; type: physicochemical; conditions: 0.66 µM
[8] = Antiproliferative activity against human HUVEC cells under 10 J/cm2 light irradiation at 660 nm by CCK8 assay; type: toxicity, cell-based
[9] = system: HeLa; experiment: Antiproliferative activity against human HeLa cells under 10 J/cm2 light irradiation at 660 nm by CCK8 assay; type: functional, cell-based; conditions: light or radiation study
[10] = Aggregation property of compound in PBS; type: physicochemical; conditions: buffer
[11] = system: HeLa; experiment: Antiproliferative activity against human HeLa cells under dark condition by CCK8 assay; type: functional, cell-based
[12] = molecular target: chymotrypsin (Homo sapiens, UniProt P17538+P40313+Q6GPI1+Q99895); experiment: Stability of compound assessed as chymotrypsin (unknown origin)-mediated compound degradation in PBS at pH 7.4 by measuring half life; type: ADME, protein assay
[13] = system: Huh-7; experiment: Antiproliferative activity against human Huh-7 cells under 10 J/cm2 light irradiation at 660 nm by CCK8 assay; type: functional, cell-based; conditions: Huh-7, light or radiation study
[14] = system: HepG2; experiment: Antiproliferative activity against human HepG2 cells under 10 J/cm2 light irradiation at 660 nm by CCK8 assay; type: functional, cell-based; conditions: HepG2, light or radiation study
[15] = system: HepG2; experiment: Antitumor activity in human HepG2 cells xenografted in BALB/C nude mouse model assessed as tumor growth inhibition at 1 uM/kg, iv administered every two days for 21 days along with 250 mW/cm2 light irradiation at 660 nm for 10 mins at 1 hr post-compound administration relative to control; type: functional; conditions: time 505.166 hrs, 505.17 h, at 1 µmol/kg
[16] = Toxicity in BALB/C nude mouse model xenografted with human HepG2 cells assessed as damage in lung at 1 uM/kg, iv administered every two days for 21 days along with 250 mW/cm2 light irradiation at 660 nm for 10 mins at 1 hr post-compound administration by H and E staining based analysis; type: organism-based; conditions: in vivo, 505.17 h, time 505.166 hrs
[17] = Drug uptake in human HUVEC cells at 500 nM incubated for 0.5 hrs by flow cytometry; type: ADME, cell-based; conditions: 0.5 µM
[18] = system: MCF7; experiment: Antitumor activity against human MCF7 cells xenografted in BALB/C nude mouse model assessed as decrease in tumor growth at 1 uM/kg, iv administered every two days for 21 days along with 250 mW/cm2 light irradiation at 660 nm for 10 mins at 1 hr post-compound administration; type: functional, organism-based; conditions: time 505.166 hrs
[19] = Toxicity in BALB/C nude mouse model xenografted with human HepG2 cells assessed as damage in kidney at 1 uM/kg, iv administered every two days for 21 days along with 250 mW/cm2 light irradiation at 660 nm for 10 mins at 1 hr post-compound administration by H and E staining based analysis; type: organism-based; conditions: in vivo, 505.17 h, time 505.166 hrs
[20] = Toxicity in BALB/C nude mouse model xenografted with human HepG2 cells assessed as damage in liver at 1 uM/kg, iv administered every two days for 21 days along with 250 mW/cm2 light irradiation at 660 nm for 10 mins at 1 hr post-compound administration by H and E staining based analysis; type: organism-based; conditions: in vivo, 505.17 h, time 505.166 hrs
[21] = molecular target: Glypican-3 (Homo sapiens, UniProt P51654); experiment: Binding affinity to GPC3 (unknown origin) assessed as dissociation constant by fluorescence polarization assay
Chain of Glypican-3 (P51654 25-358 limits assumed): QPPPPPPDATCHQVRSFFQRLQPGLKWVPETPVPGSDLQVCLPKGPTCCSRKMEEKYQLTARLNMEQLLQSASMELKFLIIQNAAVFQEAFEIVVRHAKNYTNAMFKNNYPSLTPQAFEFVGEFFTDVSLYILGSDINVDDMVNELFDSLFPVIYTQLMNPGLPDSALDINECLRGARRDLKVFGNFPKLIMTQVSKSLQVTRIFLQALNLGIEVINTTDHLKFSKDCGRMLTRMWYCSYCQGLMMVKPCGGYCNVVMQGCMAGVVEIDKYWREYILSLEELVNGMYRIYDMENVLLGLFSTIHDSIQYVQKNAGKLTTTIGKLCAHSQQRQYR
Chain of Glypican-3 (P51654 359-554 limits assumed): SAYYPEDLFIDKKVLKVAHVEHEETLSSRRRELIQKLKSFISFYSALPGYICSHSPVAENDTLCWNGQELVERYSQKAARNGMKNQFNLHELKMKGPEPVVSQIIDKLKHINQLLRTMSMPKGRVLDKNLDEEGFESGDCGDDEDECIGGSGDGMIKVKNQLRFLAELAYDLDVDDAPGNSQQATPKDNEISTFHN

[22] = Toxicity in BALB/C nude mouse model xenografted with human HepG2 cells assessed as damage in spleen at 1 uM/kg, iv administered every two days for 21 days along with 250 mW/cm2 light irradiation at 660 nm for 10 mins at 1 hr post-compound administration by H and E staining based analysis; type: organism-based; conditions: in vivo, 505.17 h, time 505.166 hrs
[23] = system: HepG2; experiment: Induction of ROS generation in human HepG2 cells at 10 uM preincubated for 24 hrs followed by DCFH-DA probe addition and further incubated under dark condition for 20 mins prior and 20 mins post- light irradiation of 10 J/cm2 at 660 nm by flow cytometry; type: functional, cell-based; conditions: time 24.66 hrs
[24] = system: HepG2; experiment: Induction of ROS generation in human HepG2 cells at 10 uM incubated for 24 hrs by DCFH-DA probe based flow cytometry; type: functional, cell-based
[25] = Toxicity in BALB/C nude mouse model xenografted with human HepG2 cells assessed as change in lung weight at 1 uM/kg, iv administered every two days for 21 days along with 250 mW/cm2 light irradiation at 660 nm for 10 mins at 1 hr post-compound administration; type: organism-based; conditions: in vivo, 505.17 h, time 505.166 hrs
[26] = Drug distribution in BALB/C nude mouse model xenografted with human HepG2 cells at 1 to 2 uM/kg, iv measured after 1 hr by fluorescence imaging analysis; type: ADME, organism-based; conditions: in vivo, dose 1-2 µM/Kg
[27] = […] assessed as decrease in fluorescence intensity of DMA; type: functional
[28] = Drug distribution in tumor of BALB/C nude mouse model xenografted with human HepG2 cells at 1 to 2 uM/kg, iv measured after 2 hrs by fluorescence imaging analysis; type: ADME, organism-based, Neoplasm; conditions: in vivo, dose 1-2 µM/Kg
[29] = Toxicity in BALB/C nude mouse model xenografted with human HepG2 cells assessed as drug tolerance at 1 uM/kg, iv administered every two days for 21 days along with 250 mW/cm2 light irradiation at 660 nm for 10 mins at 1 hr post-compound administration; type: organism-based; conditions: in vivo, 505.17 h, time 505.166 hrs
[30] = Drug uptake in human MCF7 cells incubated for 2 hrs by fluorescence based assay; type: ADME, cell-based; conditions: mcf7, 2 h
[31] = Toxicity in BALB/C nude mouse model xenografted with human HepG2 cells assessed as damage in heart at 1 uM/kg, iv administered every two days for 21 days along with 250 mW/cm2 light irradiation at 660 nm for 10 mins at 1 hr post-compound administration by H and E staining based analysis; type: organism-based; conditions: in vivo, 505.17 h, time 505.166 hrs
[32] = Toxicity in BALB/C nude mouse model xenografted with human HepG2 cells assessed as body weight loss at 1 uM/kg, iv administered every two days for 21 days along with 250 mW/cm2 light irradiation at 660 nm for 10 mins at 1 hr post-compound administration; type: organism-based; conditions: in vivo, 505.17 h, time 505.166 hrs
[33] = Toxicity in BALB/C nude mouse model xenografted with human HepG2 cells assessed as change in liver weight at 1 uM/kg, iv administered every two days for 21 days along with 250 mW/cm2 light irradiation at 660 nm for 10 mins at 1 hr post-compound administration; type: organism-based; conditions: in vivo, 505.17 h, time 505.166 hrs
[34] = Toxicity in BALB/C nude mouse model xenografted with human HepG2 cells assessed as change in spleen weight at 1 uM/kg, iv administered every two days for 21 days along with 250 mW/cm2 light irradiation at 660 nm for 10 mins at 1 hr post-compound administration; type: organism-based; conditions: in vivo, 505.17 h, time 505.166 hrs
[35] = Toxicity in BALB/C nude mouse model xenografted with human HepG2 cells assessed as change in kidney weight at 1 uM/kg, iv administered every two days for 21 days along with 250 mW/cm2 light irradiation at 660 nm for 10 mins at 1 hr post-compound administration; type: organism-based; conditions: in vivo, 505.17 h, time 505.166 hrs
[36] = Drug distribution in tumor of BALB/C nude mouse model xenografted with human HepG2 cells at 1 to 2 uM/kg, iv measured for 1 to 4 hrs by fluorescence imaging analysis; type: ADME, organism-based, Neoplasm; conditions: in vivo, dose lower 1 µM/Kg, time lower 1 hrs, dose upper 2 µM/Kg, time upper 4 hrs
[37] = Toxicity in BALB/C nude mouse model xenografted with human HepG2 cells assessed as change in heart weight at 1 uM/kg, iv administered every two days for 21 days along with 250 mW/cm2 light irradiation at 660 nm for 10 mins at 1 hr post-compound administration; type: organism-based; conditions: in vivo, 505.17 h, time 505.166 hrs

Structure (SMILES): C=Cc1c(C)c2cc3nc(c(CC(=O)O)c4[nH]c(cc5nc(cc1[nH]2)C(C)=C5CC)c(C)c4C(=O)NCCCC(=O)N[C@@H](CCCCN)C(=O)N[C@@H](CCCCN)C(=O)N[C@@H](CCCCN)C(=O)N[C@@H](CCCNC(=N)N)C(=O)N[C@@H](CC(C)C)C(=O)N[C@@H](CC(N)=O)C(=O)N[C@H](C(=O)NCC(=O)NCC(=O)N[C@H](C(=O)N[C@@H](Cc1ccc(O)cc1)C(=O)N[C@@H](Cc1ccccc1)C(=O)N[C@@H](CC(C)C)C(=O)N[C@H](C(=O)N[C@H](C(=O)N[C@@H](CCCNC(=N)N)C(=O)N[C@@H](CCC(N)=O)C(=O)O)[C@@H](C)O)[C@@H](C)O)[C@@H](C)O)C(C)C)[C@@H](CCC(=O)O)[C@@H]3C (HELM PEPTIDE1{[C=Cc1c(C)c2cc3nc(c(CC(=O)O)c4[nH]c(cc5nc(cc1[nH]2)C(C)=C5CC)c(C)c4C(=O)[*:2])[C@@H](CCC(=O)O)[C@@H]3C].[O=C(CCCN[*:1])[*:2]].K.K.K.R.L.N.V.G.G.T.Y.F.L.T.T.R.Q}$$$$V2.0)
IC50 [1]: > 200 µM | IC50 [2]: > 200 µM | IC50 [3]: > 200 µM | IC50 [4]: 0.79 µM | logP [5]: -0.5 | IC50 [6]: > 200 µM | Stability [7]: Stable | IC50 [8]: 0.38 µM | IC50 [9]: 0.57 µM | Activity [10]: Not Active | IC50 [11]: > 200 µM | half-life [12]: 1.3 h | IC50 [13]: 0.34 µM | IC50 [14]: 0.33 µM

Drug uptake [17]: Active | IC50 [2]: > 100 µM | Kd [21]: > 10 µM | IC50 [3]: > 100 µM | IC50 [4]: > 10 µM | IC50 [6]: > 100 µM | Drug uptake [26]: Active | IC50 [9]: > 10 µM | Drug uptake [28]: Not Active | Activity [10]: Active | Drug uptake [30]: Active | IC50 [11]: > 100 µM | IC50 [13]: 18 µM | Drug uptake [36]: Active | IC50 [14]: 16 µM
Structure (SMILES): C=Cc1c(C)c2cc3nc(c(CC(=O)O)c4[nH]c(cc5nc(cc1[nH]2)C(C)=C5CC)c(C)c4C(=O)O)[C@@H](CCC(=O)O)[C@@H]3C [CHLORIN E6]
TGI [15]: 71.3% | Activity [16]: Non-Toxic | IC50 [1]: > 200 µM | Activity [18]: Active | Activity [19]: Non-Toxic | Activity [20]: Non-Toxic | Activity [22]: Non-Toxic | Activity [23]: Active | Activity [24]: inactive | Activity [25]: Non-Toxic | IC50 [8]: > 10 µM | Activity [27]: Active | Activity [29]: Non-Toxic | Activity [31]: Non-Toxic | Activity [32]: Non-Toxic | Activity [33]: Non-Toxic | Activity [34]: Non-Toxic | Activity [35]: Non-Toxic | Activity [37]: Non-Toxic

Structure (SMILES): C=Cc1c(C)c2cc3nc(c(CC(=O)O)c4[nH]c(cc5nc(cc1[nH]2)C(C)=C5CC)c(C)c4C(=O)NCCCC(=O)N[C@@H](CC(=O)O)C(=O)N[C@@H](Cc1ccc(O)cc1)C(=O)N[C@@H](CCC(=O)O)C(=O)N[C@@H](CCSC)C(=O)N[C@@H](Cc1cnc[nH]1)C(=O)N[C@@H](CC(C)C)C(=O)N[C@@H](Cc1c[nH]c2ccccc12)C(=O)N[C@@H](Cc1c[nH]c2ccccc12)C(=O)NCC(=O)N[C@H](C(=O)N[C@@H](CCC(=O)O)C(=O)N[C@@H](CC(C)C)C(=O)O)[C@@H](C)O)[C@@H](CCC(=O)O)[C@@H]3C (HELM PEPTIDE1{[C=Cc1c(C)c2cc3nc(c(CC(=O)O)c4[nH]c(cc5nc(cc1[nH]2)C(C)=C5CC)c(C)c4C(=O)[*:2])[C@@H](CCC(=O)O)[C@@H]3C].[O=C(CCCN[*:1])[*:2]].D.Y.E.M.H.L.W.W.G.T.E.L}$$$$V2.0)
IC50 [1]: > 200 µM | IC50 [2]: > 200 µM | IC50 [3]: > 200 µM | IC50 [4]: 5.3 µM | logP [5]: 1.5 | IC50 [6]: > 200 µM | Stability [7]: Stable | IC50 [8]: 9.8 µM | IC50 [9]: 4.7 µM | Activity [10]: Active | IC50 [11]: > 200 µM | half-life [12]: 1.3 h | IC50 [13]: 1.9 µM | IC50 [14]: 1.7 µM
